According to PubChem BioAssay (NCI):
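Protocol summary: plate cells (96-well), add compound at 5 concentrations, incubate 48 h, interpolate endpoints linearly. TGI denotes the concentration required for complete inhibition of growth.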

Legend:
Assay in all cases: NCI anticancer screen, dose series, 48 h
786-0 renal = test system: 786-0 renal
A498 renal = test system: A498 renal
A549 NSCLC = test system: A549 NSCLC
ACHN renal = test system: ACHN renal
BT-549 breast = test system: BT-549 breast
CAKI-1 renal = test system: CAKI-1 renal
CCRF-CEM leukemia = test system: CCRF-CEM leukemia
COLO 205 colon = test system: COLO 205 colon
DU-145 prostate = test system: DU-145 prostate
EKVX NSCLC = test system: EKVX NSCLC
HCC-2998 colon = test system: HCC-2998 colon
HCT-116 colon = test system: HCT-116 colon
HCT-15 colon = test system: HCT-15 colon
HOP-62 NSCLC = test system: HOP-62 NSCLC
HOP-92 NSCLC = test system: HOP-92 NSCLC
HT29 colon = test system: HT29 colon
IGROV1 ovarian = test system: IGROV1 ovarian
K-562 leukemia = test system: K-562 leukemia
KM12 colon = test system: KM12 colon
LOX IMVI melanoma = test system: LOX IMVI melanoma
M14 melanoma = test system: M14 melanoma
MALME-3M melanoma = test system: MALME-3M melanoma
MCF7 breast = test system: MCF7 breast
MDA-MB-231 breast = test system: MDA-MB-231 breast
MDA-MB-435 = test system: MDA-MB-435
MOLT-4 leukemia = test system: MOLT-4 leukemia
NCI-H226 lung = test system: NCI-H226 lung
NCI-H23 lung = test system: NCI-H23 lung
NCI-H460 lung = test system: NCI-H460 lung
NCI-H522 lung = test system: NCI-H522 lung
NCI/ADR-RES ovarian = test system: NCI/ADR-RES ovarian
OVCAR-3 ovarian = test system: OVCAR-3 ovarian
OVCAR-4 ovarian = test system: OVCAR-4 ovarian
OVCAR-5 ovarian = test system: OVCAR-5 ovarian
OVCAR-8 ovarian = test system: OVCAR-8 ovarian
PC-3 prostate = test system: PC-3 prostate
RXF 393 renal = test system: RXF 393 renal
SF-268 CNS = test system: SF-268 CNS
SF-295 CNS = test system: SF-295 CNS
SF-539 CNS = test system: SF-539 CNS
SK-MEL-2 melanoma = test system: SK-MEL-2 melanoma
SK-MEL-28 melanoma = test system: SK-MEL-28 melanoma
SK-MEL-5 melanoma = test system: SK-MEL-5 melanoma
SK-OV-3 ovarian = test system: SK-OV-3 ovarian
SN12C renal = test system: SN12C renal
SNB-19 CNS = test system: SNB-19 CNS
SNB-75 CNS = test system: SNB-75 CNS
SR leukemia = test system: SR leukemia
SW-620 colon = test system: SW-620 colon
T-47D breast = test system: T-47D breast
TK-10 renal = test system: TK-10 renal
U251 CNS = test system: U251 CNS
UACC-257 melanoma = test system: UACC-257 melanoma
UACC-62 melanoma = test system: UACC-62 melanoma
UO-31 renal = test system: UO-31 renal
HL-60(TB) leukemia = test system: HL-60(TB) leukemia
RPMI-8226 leukemia = test system: RPMI-8226 leukemia

Measured: TGI

Cc1c(O)c(OC2OC(CO)C(O)C(O)C2O)cc2c1CC[C@@H]1C2(C)C(=O)C[C@]2(C)[C@@H]([C@@](C)(O)C3CCC(C)(C)O3)[C@H](O)C[C@@]12C (stereo partly drawn)
not listed: HL-60(TB) leukemia | RPMI-8226 leukemia
> 100 µM: all other assays above

COCCOC(=O)NCn1cc(-c2ccccc2)nn1
not listed: A498 renal | OVCAR-3 ovarian | RXF 393 renal | SF-268 CNS | SK-OV-3 ovarian | SNB-75 CNS | T-47D breast | UACC-62 melanoma | UO-31 renal
> 100 µM: all other assays above
